The source of these data is article PMC7279038, “Antioxidant and Neuroprotective Effects Induced by Cannabidiol and Cannabigerol in Rat CTX-TNA2 Astrocytes and Isolated Cortexes” (International Journal of Molecular Sciences, 2020).

For data set [1], the system named is CTX-TNA2 rat astrocyte cell line. As to the kind of experiment: MTT assay. Format: cell-based. The settings on record: for cell proliferation (MTT): basal conditions, 48 h, cannabidiol 1000 nM, cannabigerol 100 and 1000 nM; for protection from H2O2 cytotoxicity (MTT): cells challenged with 300 µM H2O2, CBD 1000 nM, CBG 1 nM. The procedure:
The CTX-TNA2 rat astrocytes were purchased from the European Collection of Cell Cultures (ECACC), Sigma-Aldrich, Milan, Italy, and cultured as already indicated. Cells were grown in Dulbecco’s Modified Eagle Medium supplemented with 10% of FBS and penicillin–streptomycin (100 µgmL^−1) (all from EuroClone SpA Life-Sciences-Division, Milan, Italy) and maintained in a humified atmosphere of 5% CO2 at 37 °C. Cells were subcultivated at a ratio of 1.2 to 1.8 and the medium was changed every 3 days. CTX-TNA2 astrocytes were plated in 25 or 75 cm^2 flasks, according to experimental needing and cells between the eight and the 15 passage were used.
When indicated, the cells were treated with H2O2 300 µM for three hours and different concentrations of CBD (1–1000 nM) and CBG (1–1000 nM). The stock solutions were diluted in cell medium to the point that the concentration of DMSO in the samples was less than 0.0003%. Therefore, the addition of DMSO to the control samples was not necessary.
The 3 [4–dimethylthiazol-2yl]-2,5-diphenyl tetrazolium bromide (MTT) growth assay (Sigma-Aldrich S.r.l.) was used to assess cell proliferation as previously described. Briefly, The CTX-TNA2 cells were seeded into 96-well plate at 8 × 10^3 cells/well and treated as described above. After 24 and 48 h, a medium containing 0.5 mg/mL MTT was added to the cells, and the cells were incubated at 37 °C for 3 h. Following a further incubation of 30 min in DMSO, the absorbance at 570 nm was measured using a Multiscan GO microplate spectrophotometer (Thermo Fisher Scientific, Waltham, MA, USA).
In general terms: Tetrazolium assays rely on reduction of a dye to a coloured formazan, in cell work by metabolically active cells.

Data set [2] relates to Bax. The experiment in a line: Western blotting analysis of Bax. Format: cell-based, rat. The settings on record: CTX-TNA2 challenged with H2O2, 24 h; 1000 nM CBD, 1 nM CBG. The procedure:
[…] The stock solutions were diluted in cell medium to the point that the concentration of DMSO in the samples was less than 0.0003%. Therefore, the addition of DMSO to the control samples was not necessary.
The western blowing analysis of Bax and Cyt C was carried out as previously reported. Specifically, CTX-TNA2 lysates (20 µg) were boiled fof 5 min in sample buffer, made of tris-HCl pH 6.8, glycerol, 2-mercaptoethanol, SDS and bromophenol blue. They were then electrophoresed and transferred to nitrocellulose membranes. […] Immunoreactive bands were identified using the ECL detection system (Euroclone, Pero, Milano, Italy) and analyzed by densitometry. Densitometric values were quantified by the CHEMIDOC XRS system and expressed as Integrated Optical Intensity using the QuantiOne 1-D analysis software (Bio-rad Laboratories, Richmond, CA, USA). […] Results are expressed as the mean ± SD.

Data set [3] concerns isolated rat prefrontal cortex, 5-HT. As to the kind of experiment: H2O2-induced reduction in 5-HT level in isolated cortexes. The settings on record: hydrogen peroxide 300 µM; CBD 1000 nM, CBG 1 nM. On the procedure: Sprague–Dawley rats (200–250 g) were sacrificed by CO2 inhalation and isolated prefrontal cortex specimens were immediately explanted and exposed to 300 µM H2O2 and different concentrations of CBD (1–1000 nM) and CBG (1–1000 nM) for one hour, at 37 °C. The nitrite concentration in the resuspension buffer was determined by colorimetric Griess assay. Specifically, cortex specimens were homogenized for 2 min with Potter–Elvehjem homogenizer in 2 mL DMEM buffer. The homogenate was centrifuged at 4500 g for 10 min and nitrite production was determined in the supernatant fraction by mixing 50 µL of the assay buffer with 50 µL of Griess reagent (1.5% sulfanilamide in 1M HCl plus 0.15% N-(1-naphthyl) ethylenediamine dihydrochloride in distilled water, v/v). After 10 min incubation at room temperature, the absorbance at 540 nm was determined and nitrite concentrations were calculated from a sodium nitrite standard curve. […]
Tissue 3-HK, 5-HT and 5HIIA levels were analyzed through an HPLC apparatus consisting of a Jasco (Tokyo, Japan) PU-2080 chromatographic pump and an ESA (Chelmsford, MA, USA) Coulochem III coulometric detector, equipped with a microdialysis cell (ESA-5014b), a porous graphite working electrode and a solid state palladium reference electrode. The analytical conditions for identification and quantification were selected according to previous studies. […]

The subject of data set [4] is 5-HT receptor (5-HT1A). The settings on record: cited from earlier work.

On to `C=C(C)[C@@H]1CCC(C)=C[C@H]1c1c(O)cc(CCCCC)cc1O` [CBD, Cannabidiol], for which, in data set [1], the “cell proliferation (MTT)” value is listed as “increase in cell proliferation” and the “protection from H2O2 cytotoxicity (MTT)” value was “effective in protecting the cells from oxidative damage”. Also, the Bax expression result in data set [2] is on record as “keep Bax expression at values comparable to the control sample”. Besides, the “effect on H2O2-induced 5-HT depletion” value in data set [3] is reported as “blunting effect on 5-HT depletion”. Further, the “effect on 5-HT1A activity” value in data set [4] is “activated”.
For the molecule `CCCCCc1cc(O)c(C/C=C(\C)CCC=C(C)C)c(O)c1` [CBG, cannabigerol], in data set [1], the “cell proliferation (MTT)” value was “increase in cell proliferation” and the “protection from H2O2 cytotoxicity (MTT)” value is reported as “effective at the lowest concentration (1 nM)”. For the same molecule, the Bax expression result in data set [2] is “expression does not differ from the control sample”. In data set [3], the “effect on H2O2-induced 5-HT depletion” value was “same effect at the concentration of 1 nM”. In addition, the “effect on 5-HT1A activity” value in data set [4] was “moderately antagonized”.
